In patent publication US20220192179A1, “BIOMIMETIC ICE-INHIBITING MATERIAL AND CRYOPRESERVATION SOLUTION COMPRISING SAME” (priority 2019, published 2022):
Peptide text beside a SMILES is read from it.

Experiments:
[1] = Ice recrystallization inhibition (IRI) activity, splat-freezing method; format: physicochemical; details: for MLGS (%) relative to that of DPBS, compared with the unbound components: 20 μL DPBS solution, same concentration
Protocol: The IRI activity was assessed using “splat-freezing method”, wherein a sample was dissolved and dispersed into a DPBS solution, and 10-30 μL of the resulting solution was added dropwise onto the surface of a clean silicon disk pre-cooled at -60° C. at a height of no less than 1.0 m; the solution was slowly heated to -6° C. at a speed of 10° C. ·min^−1 by using a hot-cold stage, and was annealed for 30 min at this temperature; the sizes of ice crystals were observed and recorded by using a polarizing microscope and a high-speed camera. The hot-cold stage was sealed to ensure that the internal humidity was about 50%.
The IRI activity was assessed using “splat-freezing method”, wherein a sample was dissolved and dispersed into a DPBS solution, and 10-30 μL of the resultant solution was added dropwise onto the surface of a clean silicon disk precooled at −60° C. at a height of no less than 1.0 m; the solution was slowly heated to −6° C. at a speed of 10° C./min by using a hot-cold stage, and was annealed for 30 min at this temperature; the sizes of ice crystals were observed and recorded by using a polarizing microscope and a high-speed camera. The hot-cold stage was sealed to ensure that the internal humidity was about 50%.
The ice recrystallization inhibition (IRI) activity was assessed using “splat-freezing method”, wherein the two PVAs were separately dissolved and dispersed into DPBS solutions, and 10-30 μL of the resulting solution was added dropwise onto the surface of a clean silicon disk pre-cooled at −60° C. at a height of no less than 1.0 m; the solution was slowly heated to −6° C. at a speed of 10° C.·min^−1 by using a hot-cold stage, and was annealed for 30 min at this temperature; the sizes of ice crystals were observed and recorded by using a polarizing microscope and a high-speed camera. The hot-cold stage was sealed to ensure that the internal humidity was about 50%.

[2] = Ice topography (DIS) observation and thermal hysteresis (TH) measurement, nanoliter osmometer; format: physicochemical; details: deionized aqueous solution; for thermal hysteresis (TH): nanoliter osmometer; for modification effect on the topography of ice crystals (DIS observation): supercooling degree of −0.1 °C
Protocol: DIS observation and TH measurement were performed by using a nanoliter osmometer. A capillary was first melt with the outer flame of a alcohol burner, and simultaneously stretched to produce a capillary with a very fine pore size, and the capillary was then linked to a microsyringe; an immersion oil with higher viscosity was injected into a disk with micron-sized holes, and an aqueous solution in which the material was dissolved was injected into the microholes by using a microsyringe; the droplet was quickly frozen by regulating the temperature, and then slowly heated to give a single crystal ice, the single crystal ice was slowly cooled at the precision of 0.01° C., and the DIS observation and TH test were performed by using a microscope provided with a high-speed camera.

CC(O)C(NC(=O)[C@@H](O)[C@H](O)[C@@H](O)[C@@H](O)CO)C(=O)O (stereo partly drawn) [GDL-L-Thr]
MLGS (%) relative to that of DPBS, compared with the unbound components [1]: obviously smaller than those of the DPBS solutions of GDL and amino acids at the same concentration
ability to inhibit the growth of ice crystals ([1]; result in words): good capability of inhibiting the growth of ice crystals
thermal hysteresis (TH) [2]: No TH was determined
modification effect on the topography of ice crystals (DIS observation) [2]: weak modification effect on the topography of ice crystals

C[C@@H](O)[C@H](N)C(=O)N[C@@H](CCCNC(=N)N)C(=O)O [TR, L-Thr-L-Arg] (H-Thr-Arg-OH)
MLGS (%) relative to that of DPBS, compared with the unbound components [1]: obviously smaller than that of the DPBS solutions of arginine and threonine at the same concentration
thermal hysteresis (TH) [2]: No TH was determined
modification effect on the topography of ice crystals (DIS observation) [2]: weak modification effect on the topography of ice crystals

NC(=O)CN(CCC(=O)O)C(=O)CN(CCC(=O)O)C(=O)CN(CCC(=O)O)C(=O)CN(CCC(=O)O)C(=O)CN(CCC(=O)O)C(=O)CNCCC(=O)O [peptoid where R was —CH2CH2COOH]
modification effect on the topography of ice crystals (DIS observation) [2]: no modification effect on the topography of ice crystals

CCNCC(=O)N(CC)CC(=O)N(CC)CC(=O)N(CC)CC(=O)N(CC)CC(=O)N(CC)CC(N)=O [peptoid where R was —CH2CH3]
thermal hysteresis (TH) [2]: no TH
modification effect on the topography of ice crystals (DIS observation) [2]: rather obvious modification effects on the topography of ice crystals
modification effect on the topography of ice crystals (DIS observation) ([2]; listed as compound of formula (9) where R is —CH2CH3): excellent modification effect on the topography of ice crystals

CNCC(=O)N(C)CC(=O)N(C)CC(=O)N(C)CC(=O)N(C)CC(=O)N(C)CC(N)=O [peptoid where R was —CH3]
thermal hysteresis (TH) [2]: no TH
modification effect on the topography of ice crystals (DIS observation) [2]: rather obvious modification effects on the topography of ice crystals
modification effect on the topography of ice crystals (DIS observation) ([2]; listed as compound of formula (9) where R is —CH3): excellent modification effect on the topography of ice crystals

GDL-L-Ser
MLGS (%) relative to that of DPBS, compared with the unbound components [1]: obviously smaller than those of the DPBS solutions of GDL and amino acids at the same concentration

GDL-L-Val
MLGS (%) relative to that of DPBS, compared with the unbound components [1]: obviously smaller than those of the DPBS solutions of GDL and amino acids at the same concentration
